# Values quoted from earlier work, collected in patent US12234492B2, “Microorganism for fermentative production of 2-phenylethanol from gaseous substrates” (LanzaTech, Inc., priority 2020, dated 2025).
# Several values for one entry are separate records, joined by “and”; a condition that tells them apart may be missing. Identical values can stand only once.
# Experiments:
# [1] = tested on: Enterococcus faecium; conditions: range given jointly for S. aureus and E. faecium; Cone et al. 1990
# [2] = tested on: Staphylococcus aureus; conditions: range given jointly for S. aureus and E. faecium; Cone et al. 1990
structure (smiles),measurement,setting,value
"OCCc1ccccc1 [2-PE, 2-phenylethanol]",growth inhibitory level,[1],26-43 mM and 3.2-5.3 g/L
same,growth inhibitory level,[2],26-43 mM and 3.2-5.3 g/L
